The source of these data is patent US20260158092A1, “COMPOSITION COMPRISING AT LEAST ONE CANNABIS EXTRACT FOR USE IN THE TREATMENT OF AN INFLAMMATORY BOWEL DISEASE” (LINNEA SA, priority 2022, published 2026).

“Also recorded” adds a separate entry of the source.

Data set [1] relates to CXCL-9. Nature of the data set: CXCL-9 release by the colonocyte (ELISA). Conditions: IL-1β/IFN-γ, extracts subjected to digestion 100 μg/mL, cannabinoids 8 μM. The data set is classed as cell-based, human. The procedure:
(§1) FIGS. 18A, 18B, 18C and 18D: Effect of the extracts 5 and 6 subjected to intestinal digestion (5d, 6d) and of the cannabinoids (CBD, CBG) on the release of inflammatory mediators (CXCL-9, CXCL-10, CCL-20, IL-15) by the colonocyte. The extracts (100 μg/mL) and the isolated molecules (8 μM) were used in the treatment concomitant with pro-inflammatory stimulation (IL-1β/IFN-γ), arbitrarily placed at 100% . * p<0.05; ** p<0.01; *** p<0.001 (one-way ANOVA test) vs IL-1β/IFN-γ. The data are the mean±SEM of at least three duplicate experiments.
(§2) Consequently, the effect of the extracts at the protein level, especially in the colonocyte, was evaluated by ELISA assays for inflammatory mediators selected starting from the transcriptional data. All mediators are regulated by NF-κB.

Data set [2] relates to CCL-20. Nature of the data set: CCL-20 release by the colonocyte (ELISA). It is filed as cell-based, human. Conditions: IL-1β/IFN-γ, extracts subjected to digestion 100 μg/mL, cannabinoids 8 μM. The procedure: as §1, §2
The subject of data set [3] is CXCL10. Nature of the data set: CXCL10 secretion in undifferentiated CaCo-2 cells (colonocytes) under pro-inflammatory stimulation. It is filed as cell-based, human. To be noted: cannabinoids 8 μM; for CXCL-10 release: colonocyte, IL-1β/IFN-γ, Phase 3, extracts subjected to digestion 100 μg/mL; for CXCL10 secretion: colonocytes, 10 ng/mL IFNγ and 10 ng/mL IL-1β, 24 hours, extracts 100 μg/mL. The procedure: Firstly, the individual cannabinoids CBD and CBG in undifferentiated cells (colonocytes) were analysed by comparing two different pro-inflammatory mixtures, in order to simplify the pro-inflammatory stimulation and the activation pathways involved. The pro-inflammatory mixture 50 ng/mL TNFα, 10 ng/mL LPS, 50 ng/ml IFNγ and 25 ng/ml IL-1ß mimics an inflammatory disease with a bacterial aetiology and was compared with a less complex mixture, consisting of 10 ng/mL IFNγ and 10 ng/mL IL-1β, deprived of the “bacterial” component, therefore more characteristic of an advanced inflammatory disease.
From the analysis of the pro-inflammatory genes most regulated by the application of the pro-inflammatory mixture, chemokines of the CXC family particularly over-expressed in the enterocyte and colonocyte emerged (FIG. 4).
The used concentration of the cannabinoids (8 μM) corresponds to a quantity equal to […] in the extracts at a concentration of 100 μg/mL.
Based on the results obtained, the effects of the different extracts were evaluated using the pro-inflammatory stimulation consisting of 10 ng/mL IFNγ and 10 ng/mL IL-1β.
as §2

Data set [4] has as its system NF-κB. Conditions: human HaCaT keratinocytes; micromolar concentrations; DOI: 10.1002/ptr.6400; cited from earlier work.
Data set [5] concerns human microbiota of fecal origin. Nature of the data set: Prebiotic effect: butyric acid (SCFA) production after fecal fermentation. Conditions: for butyric acid (SCFA) production, Mean (n = 4): LC-MS analysis, human microbiota of fecal origin. The procedure: In the last phase of the project, the prebiotic effect of the extracts 5 and 6 towards enteric bacterial strains was evaluated by means of fecal fermentation followed by gene analysis of selected strains.
Following fermentation of the extracts, the level of butyric acid produced by the intestinal flora was measured as an indicator of SCFA production. The reliability of the quantitative analysis was reinforced by two different techniques, namely an ELISA assay and mass spectrometry.
Table 2 below reports the prebiotic effect of the extracts 5 and 6 subjected to intestinal digestion (5d, 6d) and of the cannabinoids (CBD, CBG) in terms of induction of butyric acid (SCFA) production by the human microbiota of fecal origin. The result is expressed in μg/mL (LC-MS analysis).

In data set [6] the test system is CXCL-9, CXCL-10. Nature of the data set: Release of inflammatory mediators (CXCL-9, CXCL-10) by the enterocyte. To be noted: enterocyte model; IL-1β/IFN-γ; extracts subjected to digestion 100 μg/mL, cannabinoids 8 μM. The data set is classed as cell-based, human. The procedure:
FIG. 19: Effect of the extracts 5 and 6 subjected to intestinal digestion (5d, 6d) and of the cannabinoids (CBD, CBG) on the release of inflammatory mediators (CXCL-9, CXCL-10) by the enterocyte. The extracts (100 μg/mL) and the isolated molecules (8 μM) were used in the treatment concomitant with pro-inflammatory stimulation (IL-1β/IFN-γ), arbitrarily placed at 100% . * p<0.05; ** p<0.01; *** p<0.001 (one-way ANOVA test) vs IL-1β/IFN-γ. The data are the mean±SEM of at least three duplicate experiments.
The same was highlighted with the use of pure cannabinoids. In analogy with the colonocyte, the release of IL-15 was found not relevant in the enterocyte model, compared to an increase at the transcriptional level.

Data set [7] deals with undifferentiated CaCo-2 cells (colonocytes). Nature of the data set: Cytotoxicity / cell viability (MTT) in colonocytes. The procedure: Firstly, the cytotoxicity of the extracts in the undifferentiated CaCo-2 cells (colonocytes) at 100 μg/mL was evaluated.
In the first phase of the work, the combination of IL-1β (10 ng/ml) and IFN-γ (10 ng/mL) was selected as pro-inflammatory stimulation. During the third experimental phase, the cytotoxicity of the extracts in both colonocytes and enterocytes was compared, using this pro-inflammatory cocktail.

Data set [8] deals with NF-κB transcription factor. The experiment in a line: NF-κB driven transcription, luciferase reporter plasmid in colonocytes. The data set is classed as cell-based, human. Conditions: 10 ng/mL IFNγ and 10 ng/mL IL-1β, 6 hours, extracts 100 μg/mL, cannabinoids 8 μM. The source says: The use of this promoter allows the effect of the extracts/active molecules on transcription driven by this transcription factor to be observed.
Background: A reporter such as luciferase makes a cellular process visible.

As to `C=C(C)[C@@H]1CCC(C)=C[C@H]1c1c(O)cc(CCCCC)cc1O` [CBD, cannabidiol], in data set [1], the CXCL-9 release result is “more or less marked inhibitory effect on all the mediators”. Moreover, in data set [2], the CCL-20 release result is on record as “more or less marked inhibitory effect on all the mediators”. Moreover, in data set [3], the CXCL-10 release entry was “more or less marked inhibitory effect on all the mediators” and the CXCL10 secretion result is “reduced CXCL10 secretion; also recorded: more active than CBG”. The “effect on NF-κB transcription factor” value in data set [4] is “inhibitory effect”. Besides, in data set [5], the “butyric acid (SCFA) production, Mean (n = 4)” value (from here on “butyric acid (SCFA) production”) is 212.20 µg/mL. In data set [6], the “release of inflammatory mediators” value was “never showed inhibitory effects”. Further, the “cell viability / cytotoxicity (MTT)” value in data set [7] (10 ng/mL IFNγ and 10 ng/mL IL-1β, 24 hours, extracts 100 μg/mL, cannabinoids 8 μM) is “slight reduction in cell viability”. In addition, the “reduction in viability (MTT)” value in data set [7] (IL-1β/IFN-γ, 8 μM) is −25%.
Turning to `CCCCCc1cc(O)c(C/C=C(\C)CCC=C(C)C)c(O)c1` [CBG, cannabigerol], the CXCL-9 release entry in data set [1] is on record as “participate in the inhibitory activity”. Moreover, in data set [3], the CXCL-10 release result is given as “participate in the inhibitory activity” and the CXCL10 secretion entry is given as “reduced CXCL10 secretion”. In addition, in data set [5], the “butyric acid (SCFA) production” value is 173.54 µg/mL. Further, the “release of inflammatory mediators” value in data set [6] was “never showed inhibitory effects”. For the same compound, the NF-κB driven transcription entry in data set [8] is “more active than CBD”.
On to Inulin, for which the “butyric acid (SCFA) production” value in data set [5] stood at 638.87 µg/mL. In data set [5] (fecal fermentation), the “increase in butyric acid levels” value was determined as 5 times.
